The target in assay [1] is T1, full-length hepatitis C viral protein NS3•4A (Hepatitis C virus genotype 1a, UniProt P27958).
T1 construct: hexa-histidine (N); made in house; host or cells: Sf9 insect cells (baculovirus, pVL1392)
Kind of assay: biochemical. Details: species or system HCV sub-type strain 1a. The note with it: apparent Ki class.

A further assay has as its target T2, HCV NS3 protease domain (Hepatitis C virus genotype 1b, UniProt Q9WMX2).
T2 construct: The first 181 amino acids of NS3 (residues 1027-1207 of the viral polyprotein); hexa-histidine (C); made in house; host or cells: E. coli BL21/DE3 pLysS
Kind of assay: biochemical. The note with it: apparent Ki class.

Setting [2] is: Enzyme Assay 2 (HCV NS3 Peptide Cleavage Assay) activity.
Setting [3] is: Enzyme Assay 1 (HCV NS3 Protease Domain Peptide Cleavage Assay) activity.

Structures are written as SMILES. Like-named read-outs stand apart in the source and are kept apart here. Some results are limits rather than exact numbers.

`C=CCOC(=O)N[C@H](C(=O)N1C[C@@]2(CC(c3cccc(Cl)c3)=NO2)C[C@H]1C(=O)N[C@]1(C(=O)O)C[C@H]1C=C)C(C)(C)C` [Compound 460]: the Ki (in assay [1] (setting [2]); on HCV NS3 protease domain (setting [3])) was greater than 500 nM throughout.

As to `CCC[C@H](NC(=O)[C@@H]1C[C@]2(CC(c3cccc(Cl)c3)=NO2)CN1C(=O)[C@@H](NC(=O)CC1CCCCC1)C(C)(C)C)C(=O)C(=O)NCc1ccncc1` [Compound 461], the values for the Ki (in assay [1] (setting [2]); at HCV NS3 protease domain (setting [3])) were 100 to 500 nM and greater than 500 nM, respectively.

As to `CCC[C@H](NC(=O)[C@@H]1C[C@]2(CC(c3cccc(Cl)c3)=NO2)CN1C(=O)C(NS(=O)(=O)c1ccc(F)cc1)c1ccccc1)C(=O)C(=O)NC1CC1` (stereo partly shown) [Compound 466], the Ki (in assay [1] (setting [2]); on HCV NS3 protease domain (setting [3])) was greater than 500 nM throughout.

Turning to `CCC[C@H](NC(=O)[C@@H]1C[C@]2(CC(c3cccc(Cl)c3)=NO2)CN1C(=O)[C@@H](NC(=O)CC1CC2CCC1C2)C(C)(C)C)C(=O)C(=O)NC1CC1` (stereo partly shown) [Compound 467], the Ki in assay [1] (setting [2]) is less than 100 nM; on HCV NS3 protease domain (setting [3]), 100 to 500 nM.

Turning to `CCC[C@H](NC(=O)[C@@H]1C[C@]2(CC(c3cccnc3OC)=NO2)CN1C(=O)[C@@H](NC(=O)CC1CCCCC1)C(C)(C)C)C(=O)C(=O)NC1CC1` [Compound 469], the Ki in assay [1] (setting [2]) was 100 to 500 nM; on HCV NS3 protease domain (setting [3]) it was greater than 500 nM.

In the case of `CCC[C@H](NC(=O)[C@@H]1C[C@]2(CC(c3cccc(Cl)c3)=NO2)CN1C(=O)[C@H](NS(=O)(=O)c1ccc(C)cc1)c1ccccc1)C(=O)C(=O)NC1CC1` [Compound 476], the Ki (in assay [1] (setting [2]); on HCV NS3 protease domain (setting [3])) was 100 to 500 nM throughout.

Take `CCC[C@H](NC(=O)[C@@H]1C[C@]2(CC(c3cccc(Cl)c3)=NO2)CN1C(=O)CCN(c1ccccc1)S(=O)(=O)c1ccccc1)C(=O)C(=O)NC1CC1` [Compound 483]: the Ki (in assay [1] (setting [2]); at HCV NS3 protease domain (setting [3])) was greater than 500 nM in each case.

On to `CCC[C@H](NC(=O)[C@@H]1C[C@]2(CC(c3cccc(Cl)c3)=NO2)CN1C(=O)[C@@H](NC(=O)CC1CCCCC1)C(C)(C)C)C(=O)C(=O)NCCOc1ccccc1OC` [Compound 488], for which the Ki in assay [1] (setting [2]) was 100 to 500 nM; on HCV NS3 protease domain (setting [3]) it was greater than 500 nM.

Consider `CCC[C@H](NC(=O)[C@@H]1C[C@]2(CC(c3cccc(Cl)c3)=NO2)CN1C(=O)[C@@H](NS(=O)(=O)c1ccc(OC)cc1)C(C)C)C(=O)C(=O)NC1CC1` [Compound 489], for which the results for the Ki (in assay [1] (setting [2]); on HCV NS3 protease domain (setting [3])) were 100 to 500 nM and greater than 500 nM, respectively.

For `CCC[C@H](NC(=O)[C@@H]1C[C@]2(CC(c3cccc(Cl)c3)=NO2)CN1C(=O)[C@@H](NC(=O)CC1CCCCC1)C(C)(C)C)C(=O)C(=O)NC` [Compound 493], the results for the Ki (in assay [1] (setting [2]); on HCV NS3 protease domain (setting [3])) were less than 100 nM and 100 to 500 nM, respectively.

Take `CCC[C@H](NC(=O)[C@@H]1C[C@]2(CC(c3cccc(Cl)c3)=NO2)CN1C(=O)[C@@H](NC(=O)CC1CCCCC1)C(C)(C)C)C(=O)C(=O)N1CCCC1` [Compound 496]: the Ki (in assay [1] (setting [2]); on HCV NS3 protease domain (setting [3])) was greater than 500 nM each time.

For the compound `CCC[C@H](NC(=O)[C@@H]1C[C@]2(CC(c3cc(Cl)c4c(c3)CCO4)=NO2)CN1C(=O)[C@@H](NC(=O)CC1CCCCC1)C(C)(C)C)C(=O)C(=O)NC1CC1` [Compound 499], the Ki (in assay [1] (setting [2]); at HCV NS3 protease domain (setting [3])) was less than 100 nM throughout.

`CCC[C@H](NC(=O)[C@@H]1C[C@]2(CC(c3ccc(OC)c(C)c3)=NO2)CN1C(=O)[C@@H](NC(=O)CC1CCCCC1)C(C)(C)C)C(=O)C(=O)NC1CC1` [Compound 500]: the figures for the Ki (in assay [1] (setting [2]); at HCV NS3 protease domain (setting [3])) were less than 100 nM and 100 to 500 nM, respectively.

On to `CCC[C@H](NC(=O)[C@@H]1C[C@]2(CC(c3cccc(Cl)c3)=NO2)CN1C(=O)C(NS(=O)(=O)c1ccccc1)c1ccccc1)C(=O)C(=O)NC1CC1` (stereo partly shown) [Compound 501], for which the Ki (in assay [1] (setting [2]); at HCV NS3 protease domain (setting [3])) was greater than 500 nM in each case.

On to `CCC[C@H](NC(=O)[C@@H]1C[C@]2(CC(c3cccc(Cl)c3)=NO2)CN1C(=O)[C@@H](NC(=O)CC1CCCCC1)C(C)(C)C)C(=O)C(=O)N[C@@H](C)C(O)(c1ccccc1)c1ccccc1` [Compound 507], for which the Ki (in assay [1] (setting [2]); on HCV NS3 protease domain (setting [3])) was greater than 500 nM throughout.

For the compound `CCCNC(=O)C(=O)[C@H](CCC)NC(=O)[C@@H]1C[C@]2(CC(c3cccc(Cl)c3)=NO2)CN1C(=O)[C@@H](NC(=O)CC1CCCCC1)C(C)(C)C` [Compound 508], the Ki (in assay [1] (setting [2]); on HCV NS3 protease domain (setting [3])) was 100 to 500 nM in each case.

For `C#CCCC(NC(=O)[C@@H]1C[C@]2(CC(c3cc(Cl)c(OC)cc3OC)=NO2)CN1C(=O)[C@@H](NC(=O)CC1CCOCC1)C(C)(C)C)C(=O)C(=O)NC1CC1` (stereo partly shown) [Compound 510], the Ki in assay [1] (setting [2]) is less than 100 nM; at HCV NS3 protease domain (setting [3]), 100 to 500 nM.

As for `CCC[C@H](NC(=O)[C@@H]1C[C@]2(CC(c3cccc(Cl)c3)=NO2)CN1C(=O)[C@@H](NC(=O)CC1CCCCC1)C(C)(C)C)C(=O)C(=O)N1CC(F)(F)C1` [Compound 521], the figures for the Ki (in assay [1] (setting [2]); on HCV NS3 protease domain (setting [3])) were less than 100 nM and 100 to 500 nM, respectively.

In the case of `CCC[C@H](NC(=O)[C@@H]1C[C@]2(CC(c3ccccc3)=NO2)CN1C(=O)[C@@H](NC(=O)CC1CCCCC1)C(C)(C)C)C(=O)C(=O)NC1CC1` [Compound 531], the Ki (in assay [1] (setting [2]); on HCV NS3 protease domain (setting [3])) was 100 to 500 nM throughout.

With `CCC[C@H](NC(=O)[C@@H]1C[C@]2(CC(c3cccc(Cl)c3)=NO2)CN1C(=O)[C@@H](NS(=O)(=O)c1ccc(OC)cc1)C(C)CC)C(=O)C(=O)NC1CC1` (stereo partly shown) [Compound 534], the Ki (in assay [1] (setting [2]); at HCV NS3 protease domain (setting [3])) was greater than 500 nM in each case.

For the compound `CCC[C@H](NC(=O)[C@@H]1C[C@]2(CC(c3cccc(Cl)c3)=NO2)CN1C(=O)[C@@H](NC(=O)CC1CCCCC1)C(C)(C)C)C(=O)C(=O)N1CCC[C@H]1COC` [Compound 537], the Ki (in assay [1] (setting [2]); at HCV NS3 protease domain (setting [3])) was greater than 500 nM throughout.

Regarding `CCC[C@H](NC(=O)[C@@H]1C[C@]2(CC(c3cccc(Cl)c3)=NO2)CN1C(=O)[C@@H](NC(=O)CC1CCCCC1)C(C)(C)C)C(=O)C(=O)NCCc1cccc(OC)c1` [Compound 540], the Ki (in assay [1] (setting [2]); on HCV NS3 protease domain (setting [3])) was 100 to 500 nM throughout.

In the case of `CCC[C@H](NC(=O)[C@@H]1C[C@]2(CC(c3cccc(Cl)c3)=NO2)CN1C(=O)[C@@H](NC(=O)CC1(C)CCOCC1)C(C)(C)C)C(=O)C(=O)NC1CC1` [Compound 541], the Ki was less than 100 nM in assay [1] (setting [2]) and 100 to 500 nM on HCV NS3 protease domain (setting [3]).

As to `CCC[C@H](NC(=O)[C@@H]1C[C@]2(CC(c3cccc(Cl)c3)=NO2)CN1C(=O)[C@@H](NC(=O)CC1CCCCC1)C(C)(C)C)C(=O)C(=O)N[C@@H](C)c1ccccc1` [Compound 546], the Ki (in assay [1] (setting [2]); on HCV NS3 protease domain (setting [3])) was 100 to 500 nM throughout.

For the compound `CCC[C@H](NC(=O)[C@@H]1C[C@]2(CC(CC)=NO2)CN1C(=O)[C@@H](NC(=O)NC(C)(C)C)C(C)(C)C)C(=O)C(=O)NC1CC1` [Compound 559], the Ki (in assay [1] (setting [2]); on HCV NS3 protease domain (setting [3])) was greater than 500 nM each time.

`CCC[C@H](NC(=O)[C@@H]1C[C@]2(CC(c3cccc(Cl)c3)=NO2)CN1C(=O)[C@@H](NC(=O)CC1CCCCC1)C(C)(C)C)C(=O)C(=O)NC1CCS(=O)(=O)C1` (stereo partly shown) [Compound 565]: the Ki (in assay [1] (setting [2]); on HCV NS3 protease domain (setting [3])) was greater than 500 nM throughout.

For `CCC[C@H](NC(=O)[C@@H]1C[C@]2(CC(CC)=NO2)CN1C(=O)[C@@H](NC(=O)CC1CCOCC1)C(C)(C)C)C(=O)C(=O)NC1CC1` [Compound 566], the Ki (in assay [1] (setting [2]); at HCV NS3 protease domain (setting [3])) was greater than 500 nM each time.

Take `CCC[C@H](NC(=O)[C@@H]1C[C@]2(CC(c3cccc(Cl)c3)=NO2)CN1C(=O)[C@@H](NC(=O)CC1CCCCC1)C(C)(C)C)C(=O)C(=O)NCc1nc2ccccc2[nH]1` [Compound 567]: the values for the Ki (in assay [1] (setting [2]); on HCV NS3 protease domain (setting [3])) were 100 to 500 nM and greater than 500 nM, respectively.

For `CCC[C@H](NC(=O)[C@@H]1C[C@]2(CC(c3cccc(Cl)c3)=NO2)CN1C(=O)[C@@H](NC(=O)CC1CCCCC1)C(C)(C)C)C(=O)C(=O)N1CCCCC1` [Compound 568], the Ki (in assay [1] (setting [2]); at HCV NS3 protease domain (setting [3])) was greater than 500 nM in each case.

As for `CCC[C@H](NC(=O)[C@@H]1C[C@]2(CC(c3cccc(Cl)c3)=NO2)CN1C(=O)[C@@H](NC(=O)CC1CCCCC1)C(C)(C)C)C(=O)C(=O)Nc1ccc(F)c(F)c1` [Compound 573], the Ki (in assay [1] (setting [2]); on HCV NS3 protease domain (setting [3])) was greater than 500 nM throughout.

In the case of `CCC[C@H](NC(=O)[C@@H]1C[C@]2(CC(c3cccc(Cl)c3)=NO2)CN1C(=O)C(C)N1Cc2ccccc2C1=O)C(=O)C(=O)NC1CC1` (stereo partly shown) [Compound 574], the Ki (in assay [1] (setting [2]); on HCV NS3 protease domain (setting [3])) was greater than 500 nM in each case.

Regarding `CCC[C@H](NC(=O)[C@@H]1C[C@]2(CC(c3cccc(Cl)c3)=NO2)CN1C(=O)[C@@H](NC(=O)CC1CCC(C)(O)CC1)C(C)(C)C)C(=O)C(=O)NC1CC1` (stereo partly shown) [Compound 575], the Ki (in assay [1] (read-out: Enzyme Assay 2 (HCV NS3 Peptide Cleavage Assay) activity); on HCV NS3 protease domain (read-out: Enzyme Assay 1 (HCV NS3 Protease Domain Peptide Cleavage Assay) activity)) was less than 100 nM in each case.

For the compound `CCC[C@H](NC(=O)[C@@H]1C[C@]2(CC(c3cccc(Cl)c3)=NO2)CN1C(=O)C1=CC(c2cc(OC)ccc2OC)NC(=O)N1)C(=O)C(=O)NC1CC1` (stereo partly shown) [Compound 586], the Ki (in assay [1] (setting [2]); on HCV NS3 protease domain (setting [3])) was greater than 500 nM in each case.

With `CCC[C@H](NC(=O)[C@@H]1C[C@]2(CC(c3cccc(Cl)c3)=NO2)CN1C(=O)[C@H](CC(C)C)NS(=O)(=O)c1ccc(OC)cc1)C(=O)C(=O)NC1CC1` [Compound 587], the Ki was 100 to 500 nM in assay [1] (setting [2]) and greater than 500 nM at HCV NS3 protease domain (setting [3]).

Consider `CCC[C@H](NC(=O)[C@@H]1C[C@]2(CC(c3cccc(Cl)c3)=NO2)CN1C(=O)[C@@H](NC(=O)CC1CCCCC1)C(C)(C)C)C(=O)C(=O)Nc1cccc(C#N)c1` [Compound 588], for which the Ki (in assay [1] (setting [2]); at HCV NS3 protease domain (setting [3])) was greater than 500 nM throughout.

The values are drawn from patent US7964624B1, “Inhibitors of serine proteases” (priority 2005, dated 2011).
